Data as given in ChEMBL document CHEMBL5352398 (Eur J Med Chem, 2022).
Activity calls are given as the source filed them. The calls are words filed in the database; no cut-off is given here.

Tests used:
Mus musculus [1] = test: Anti-hyperuricemic activity against potassium oxonate induced hyperuricemia in Kunming mouse model assessed as decrease in serum urate level at 2 mg/kg, po and measured after 3 hrs; assay type: functional, organism-based
[2] = target: T1, Solute carrier family 2, facilitated glucose transporter member 9 (Mus musculus, UniProt Q3T9X0); test: Inhibition of mouse GLUT9 transfected in human HEK293 cells assessed as inhibition of uric acid induced current by cell patch-clamp assay; assay type: cell-based
T1 sequence (Q3T9X0 whole entry): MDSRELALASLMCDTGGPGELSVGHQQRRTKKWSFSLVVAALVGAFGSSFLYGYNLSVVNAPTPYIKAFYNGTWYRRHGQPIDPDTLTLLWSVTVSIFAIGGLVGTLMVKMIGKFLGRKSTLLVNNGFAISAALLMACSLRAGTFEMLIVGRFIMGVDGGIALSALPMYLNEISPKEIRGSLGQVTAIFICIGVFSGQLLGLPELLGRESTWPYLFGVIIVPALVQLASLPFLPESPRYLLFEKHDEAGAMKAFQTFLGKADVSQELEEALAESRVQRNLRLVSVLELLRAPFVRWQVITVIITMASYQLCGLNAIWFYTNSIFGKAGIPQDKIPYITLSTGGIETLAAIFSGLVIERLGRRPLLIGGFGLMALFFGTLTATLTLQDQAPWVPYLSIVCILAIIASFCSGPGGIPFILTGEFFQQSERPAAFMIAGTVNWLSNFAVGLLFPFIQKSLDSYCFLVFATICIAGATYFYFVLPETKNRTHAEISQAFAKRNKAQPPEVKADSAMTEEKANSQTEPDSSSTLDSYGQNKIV

[3] = MRT (0 to infinity) in Sprague-Dawley rat at 5 mg/kg, iv and measured upto 24 hrs by LC-MS/MS analysis; assay type: ADME, organism-based; conditions: in vivo
[4] = Toxicity in Kunming mouse assessed as inflammatory infiltration in liver at 50 mg/kg, po administered and measured after 14 days by HE staining; assay type: organism-based; conditions: in vivo, 336 h, time 14 day
[5] = AUC(0 to infinity) in Sprague-Dawley rat at 5 mg/kg, po and measured upto 24 hrs by LC-MS/MS analysis; assay type: ADME, organism-based; set-up: time < 24 hrs, dose 5 mg/kg, route po; conditions: in vivo
[6] = Subacute toxicity in Kunming mouse assessed as anorexia at 50 mg/kg,po for 14 days; assay type: organism-based; conditions: in vivo, 336 h, time 14 day
[7] = Hepatotoxicity in Kunming mouse assessed as reduction in serum GSH level at 50 mg/kg, ip and incubated for 12 hrs; assay type: toxicity, organism-based; conditions: in vivo
HepG2 = test: Cytotoxicity against human HepG2 cells assessed as reduction in cell viability at 100 uM incubated for 72 hrs by MTT assay; assay type: toxicity, cell-based; conditions: hepg2, 72 h
[8] = target: T2, Solute carrier family 22 member 6 (Homo sapiens, UniProt Q4U2R8); test: Inhibition of OAT1 (unknown origin) transfected in HEK293 cells assessed as inhibition of 6-CFL uptake preincubated for 30 mins followed by 6-CFL addition and measured for 15 mins by fluorescence based microplate reader analysis; assay type: cell-based
T2 sequence (Q4U2R8 whole entry): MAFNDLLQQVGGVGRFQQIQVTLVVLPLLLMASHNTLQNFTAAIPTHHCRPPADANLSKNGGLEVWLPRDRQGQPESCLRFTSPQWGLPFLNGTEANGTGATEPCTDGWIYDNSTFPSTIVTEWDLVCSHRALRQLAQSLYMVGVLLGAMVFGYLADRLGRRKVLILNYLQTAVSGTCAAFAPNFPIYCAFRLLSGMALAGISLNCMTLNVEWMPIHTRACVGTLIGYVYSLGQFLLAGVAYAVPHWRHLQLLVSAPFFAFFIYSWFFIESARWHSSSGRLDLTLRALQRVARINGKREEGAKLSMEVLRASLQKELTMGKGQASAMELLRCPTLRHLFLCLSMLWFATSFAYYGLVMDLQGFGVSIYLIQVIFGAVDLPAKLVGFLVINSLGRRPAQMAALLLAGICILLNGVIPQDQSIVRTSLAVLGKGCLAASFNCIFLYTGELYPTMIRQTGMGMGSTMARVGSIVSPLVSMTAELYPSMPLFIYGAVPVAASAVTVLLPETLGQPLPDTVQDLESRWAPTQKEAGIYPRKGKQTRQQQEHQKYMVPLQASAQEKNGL

[9] = MRT (0 to infinity) in Sprague-Dawley rat at 5 mg/kg, po and measured upto 24 hrs by LC-MS/MS analysis; assay type: ADME, organism-based; conditions: in vivo
[10] = Renal toxicity in Kunming mouse assessed as effect on creatinine level at 50 mg/kg,po for 14 days; assay type: organism-based; conditions: in vivo, 336 h, time 14 day
[11] = Hepatotoxicity in Kunming mouse assessed as reduction in serum GSH level at 50 mg/kg, ip and incubated for 1 hr relative to control; assay type: toxicity, organism-based; set-up: scale not given: the % may be the effect or the level left; conditions: in vivo
[12] = AUC(0 to infinity) in Sprague-Dawley rat at 5 mg/kg, iv and measured upto 24 hrs by LC-MS/MS analysis; assay type: ADME, organism-based; set-up: dose 5 mg/kg, time < 24 hrs, route iv; conditions: in vivo
[13] = Hepatotoxicity in Kunming mouse assessed as reduction in GSH level in serum at 50 mg/kg, ip and incubated for 1 hr (reference value: 41.68 uM); assay type: toxicity, organism-based; conditions: in vivo
[14] = Toxicity in Kunming mouse assessed as appearance of normal tubular structure in kidney at 50 mg/kg, po administered and measured after 14 days by HE staining; assay type: organism-based; conditions: in vivo, 336 h, time 14 day
[15] = Toxicity in Kunming mouse assessed as dilated vacuolization in liver at 50 mg/kg, po and measured after 14 days by HE staining based microscopy; assay type: organism-based; conditions: in vivo, 336 h, time 14 day
[16] = Renal toxicity in Kunming mouse assessed as effect on BUN level at 50 mg/kg,po for 14 days; assay type: organism-based; conditions: in vivo, 336 h, time 14 day
[17] = Cytotoxicity against human HepG2 cells assessed as inhibition of cell growth at 400 uM incubated for 72 hrs by MTT assay relative to control; assay type: toxicity, cell-based
[18] = Half life in Sprague-Dawley rat at 5 mg/kg, iv and measured upto 24 hrs by LC-MS/MS analysis; assay type: ADME, organism-based; conditions: in vivo
[19] = Subacute toxicity in Kunming mouse assessed as clonic convulsion at 50 mg/kg,po for 14 days; assay type: organism-based; conditions: in vivo, 336 h, time 14 day
[20] = Subacute toxicity in Kunming mouse assessed as ruffled fur at 50 mg/kg,po for 14 days; assay type: organism-based; conditions: in vivo, 336 h, time 14 day
Mus musculus [21] = test: Anti-hyperuricemic activity against potassium oxonate induced hyperuricemia in Kunming mouse model assessed as decrease in serum urate level at 4 mg/kg, po and measured after 3 hrs; assay type: functional, organism-based
[22] = Toxicity in Kunming mouse assessed as mild inflammatory infiltration in liver at 50 mg/kg, po and measured after 14 days by HE staining based microscopy; assay type: organism-based; conditions: in vivo, 336 h, time 14 day

For `CCc1oc2ccccc2c1C(=O)c1cc(Br)c(O)c(Br)c1` [BENZBROMARONE], the Activity (Mus musculus [1]) was “Active”, the IC50 [2] was over 20000 nM and the MRT inf [3] was 3.75 h. The Activity [4] was “Non-Toxic”, the AUC(0-inf) [5] was 11100 ng·h/mL and the Activity [6] was “Non-Toxic”. For the same molecule, the Activity [7] was “Toxic”, the Activity (HepG2) was “Toxic” and the IC50 [8] was 2120 nM. The MRT inf [9] was 3.48 h, the Activity [10] was “Non-Toxic” and the Activity [11] was 74.29%. The AUC(0-inf) [12] was 30700 ng·h/mL, the Activity [13] was 10.72 µM and the Activity [14] was “Non-Toxic”. For the same molecule, the Activity [15] was “Toxic”, the Activity [16] was “Non-Toxic” and the inhibition at 72 h, 400 µM [17] was 65.7%. For the same molecule, the half-life [18] was 3.03 h, the Activity [19] was “Non-Toxic” and the Activity [20] was “Non-Toxic”. The Activity (Mus musculus [21]) was “Active” and the Activity [22] was “Toxic”.
